Laboratory results reported in PubChem BioAssay AID248 (DTP/NCI, 2004).
Several values for one entry are separate records, joined by “and”; a condition that tells them apart may be missing. Identical values can stand only once. Inconclusive results and toxic doses are left out. No stated cut-off is given here; in the data, active means T/C of 150% or more; inactive means T/C below 125%.

System: L1210 leukemia ip in BDF1 mice, survival T/C
Test: NCI In Vivo Anticancer Drug Screen. Data for tumor model L1210 Leukemia (intraperitoneal) in B6D2F1 (BDF1) mice
Settings: endpoint: mean survival time, higher = longer survival
In short: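 Transplanted-tumor mice were given test agent; controls received vehicle only. Survival readings from the two groups were divided (treated over control).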

[1] = dose: 100.0 mg/kg/injection, schedule: Q01DX001 (ip), vehicle: Klucel (hydroxypropylcellulose) (HPC)
[2] = dose: 200.0 mg/kg/injection, schedule: Q01DX001 (ip), vehicle: Klucel (hydroxypropylcellulose) (HPC)
[3] = dose: 400.0 mg/kg/injection, schedule: Q01DX001 (ip), vehicle: Klucel (hydroxypropylcellulose) (HPC)
[4] = dose: 50.0 mg/kg/injection, schedule: Q01DX009 (ip), vehicle: Klucel (hydroxypropylcellulose) (HPC)
[5] = dose: 100.0 mg/kg/injection, schedule: Q01DX009 (ip), vehicle: Klucel (hydroxypropylcellulose) (HPC)
[6] = dose: 200.0 mg/kg/injection, schedule: Q01DX009 (ip), vehicle: Klucel (hydroxypropylcellulose) (HPC)
[7] = dose: 100.0 mg/kg/injection, schedule: Q04DX003 (ip), vehicle: Klucel (hydroxypropylcellulose) (HPC)
[8] = dose: 200.0 mg/kg/injection, schedule: Q04DX003 (ip), vehicle: Klucel (hydroxypropylcellulose) (HPC)
[9] = dose: 400.0 mg/kg/injection, schedule: Q04DX003 (ip), vehicle: Klucel (hydroxypropylcellulose) (HPC)

Measured: T/C

COC(C)=C1c2ccccc2-c2ccccc21
inactive: [1] 98 % of control | [2] 99 % of control | [3] 94 % of control

CCOC(=O)/C(C#N)=C/c1cc2c3c(c1)CCCN3CCC2
inactive: dose: 50.0 mg/kg/injection, schedule: Q04DX003 (ip), vehicle: saline with Tween-80 111 % of control | dose: 100.0 mg/kg/injection, schedule: Q04DX003 (ip), vehicle: saline with Tween-80 93 % of control | dose: 200.0 mg/kg/injection, schedule: Q04DX003 (ip), vehicle: saline with Tween-80 93 % of control | dose: 400.0 mg/kg/injection, schedule: Q04DX003 (ip), vehicle: saline with Tween-80 92 % of control

O=C(Nc1ccccc1C(F)(F)F)OCC1CCCO1 (stereo not drawn)
inactive: dose: 100.0 mg/kg/injection, schedule: Q01DX009 (ip), vehicle: gum acacia 109 % of control | dose: 200.0 mg/kg/injection, schedule: Q01DX009 (ip), vehicle: gum acacia 95 % of control | dose: 400.0 mg/kg/injection, schedule: Q01DX009 (ip), vehicle: gum acacia 100 % of control

NS(=O)(=O)c1ccc(N=Nc2ncc[nH]2)cc1
inactive: [4] 94 % of control | [5] 94 % of control | [6] 94 % of control

Cc1cccc(NC(=O)Oc2ccccc2C(N)=O)c1
inactive: [1] 94 % of control | [5] 94 % of control | dose: 100.0 mg/kg/injection, schedule: Q04DX002 (ip), vehicle: Klucel (hydroxypropylcellulose) (HPC) 94 % of control and 100 % of control | [7] 95 % of control | [2] 95 % of control | [6] 96 % of control | dose: 200.0 mg/kg/injection, schedule: Q04DX002 (ip), vehicle: Klucel (hydroxypropylcellulose) (HPC) 98 % of control | [8] 95 % of control | [3] 106 % of control | dose: 400.0 mg/kg/injection, schedule: Q01DX009 (ip), vehicle: Klucel (hydroxypropylcellulose) (HPC) 91 % of control and 92 % of control | dose: 400.0 mg/kg/injection, schedule: Q04DX002 (ip), vehicle: Klucel (hydroxypropylcellulose) (HPC) 94 % of control and 96 % of control | [9] 93 % of control

C[CH2][Ge]1([CH2]C)[CH2]CC2(C[CH2]1)NC(=O)N(CCCN(C)C)C2=O
inactive: dose: 100.0 mg/kg/injection, schedule: Q04DX002 (ip), vehicle: saline 100 % of control | dose: 200.0 mg/kg/injection, schedule: Q04DX002 (ip), vehicle: saline 105 % of control

ClCc1cc(OCc2ccccc2)ccc1OCc1ccccc1
inactive: dose: 75.0 mg/kg/injection, schedule: Q04DX003 (ip), vehicle: Klucel (hydroxypropylcellulose) (HPC) 86 % of control | [1] 101 % of control | dose: 150.0 mg/kg/injection, schedule: Q04DX003 (ip), vehicle: Klucel (hydroxypropylcellulose) (HPC) 91 % of control | [2] 94 % of control | dose: 300.0 mg/kg/injection, schedule: Q04DX003 (ip), vehicle: Klucel (hydroxypropylcellulose) (HPC) 86 % of control | [3] 97 % of control

CC(C)C1C(C)N1C(C)C (stereo not drawn)
inactive: dose: 25.0 mg/kg/injection, schedule: Q01DX009 (ip), vehicle: Klucel (hydroxypropylcellulose) (HPC) 107 % of control | [4] 100 % of control | [5] 104 % of control | [7] 95 % of control

Nc1sc(=S)nc2[nH]ncc12
inactive: [4] 90 % of control | [5] 96 % of control | [7] 98 % of control | [6] 93 % of control | [8] 95 % of control | [9] 95 % of control
